Experimental data taken from ChEMBL document CHEMBL2396526, “Chromenylchalcones showing cytotoxicity on human colon cancer cell lines and in silico docking with aurora kinases” (Bioorg Med Chem, 2013).
Activity calls are given as the source filed them. No cut-off for these calls is given here.

Assays:
HCT-116 [1] = test: Induction of apoptosis in human HCT116 cells assessed as DNA content at G1 phase at 20 uM after 24 hrs by annexin V-FITC/propidium iodide staining-based flow cytometric analysis (reference value: 8%); type: functional
HCT-116 [2] = test: Induction of apoptosis in human HCT116 cells assessed as dead cells at 20 uM after 24 hrs by annexin V-FITC/propidium iodide staining-based flow cytometric analysis (reference value: 2%); type: functional
HCT-116 [3] = test: Induction of apoptosis in human HCT116 cells assessed as late apoptotic cells at 20 uM after 24 hrs by annexin V-FITC/propidium iodide staining-based flow cytometric analysis (reference value: 5%); type: functional
Homo sapiens = organism: Homo sapiens; test: Inhibition of human Rsk
[4] = target: Tyrosine-protein kinase Lck (Homo sapiens) (UniProt P06239); test: Inhibition of human LCK
Tyrosine-protein kinase Lck (Homo sapiens), sequence (P06239 2-509 limits assumed): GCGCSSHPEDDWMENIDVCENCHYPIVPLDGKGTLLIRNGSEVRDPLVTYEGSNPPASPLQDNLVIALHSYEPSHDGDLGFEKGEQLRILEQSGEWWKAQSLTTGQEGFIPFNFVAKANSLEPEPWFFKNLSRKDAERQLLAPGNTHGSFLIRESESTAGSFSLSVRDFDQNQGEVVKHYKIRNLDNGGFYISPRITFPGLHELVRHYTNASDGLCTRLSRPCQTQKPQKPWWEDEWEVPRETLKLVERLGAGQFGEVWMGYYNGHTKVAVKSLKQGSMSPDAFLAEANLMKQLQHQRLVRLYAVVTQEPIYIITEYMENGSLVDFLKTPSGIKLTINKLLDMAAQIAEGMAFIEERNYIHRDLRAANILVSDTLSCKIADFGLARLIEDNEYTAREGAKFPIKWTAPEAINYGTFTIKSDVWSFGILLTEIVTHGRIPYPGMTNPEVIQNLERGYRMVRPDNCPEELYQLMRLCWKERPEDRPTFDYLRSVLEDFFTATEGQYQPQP

[5] = target: T1, Ephrin type-B receptor 3 (Homo sapiens) (UniProt P54753); test: Inhibition of human EphB
T1 sequence (whole entry): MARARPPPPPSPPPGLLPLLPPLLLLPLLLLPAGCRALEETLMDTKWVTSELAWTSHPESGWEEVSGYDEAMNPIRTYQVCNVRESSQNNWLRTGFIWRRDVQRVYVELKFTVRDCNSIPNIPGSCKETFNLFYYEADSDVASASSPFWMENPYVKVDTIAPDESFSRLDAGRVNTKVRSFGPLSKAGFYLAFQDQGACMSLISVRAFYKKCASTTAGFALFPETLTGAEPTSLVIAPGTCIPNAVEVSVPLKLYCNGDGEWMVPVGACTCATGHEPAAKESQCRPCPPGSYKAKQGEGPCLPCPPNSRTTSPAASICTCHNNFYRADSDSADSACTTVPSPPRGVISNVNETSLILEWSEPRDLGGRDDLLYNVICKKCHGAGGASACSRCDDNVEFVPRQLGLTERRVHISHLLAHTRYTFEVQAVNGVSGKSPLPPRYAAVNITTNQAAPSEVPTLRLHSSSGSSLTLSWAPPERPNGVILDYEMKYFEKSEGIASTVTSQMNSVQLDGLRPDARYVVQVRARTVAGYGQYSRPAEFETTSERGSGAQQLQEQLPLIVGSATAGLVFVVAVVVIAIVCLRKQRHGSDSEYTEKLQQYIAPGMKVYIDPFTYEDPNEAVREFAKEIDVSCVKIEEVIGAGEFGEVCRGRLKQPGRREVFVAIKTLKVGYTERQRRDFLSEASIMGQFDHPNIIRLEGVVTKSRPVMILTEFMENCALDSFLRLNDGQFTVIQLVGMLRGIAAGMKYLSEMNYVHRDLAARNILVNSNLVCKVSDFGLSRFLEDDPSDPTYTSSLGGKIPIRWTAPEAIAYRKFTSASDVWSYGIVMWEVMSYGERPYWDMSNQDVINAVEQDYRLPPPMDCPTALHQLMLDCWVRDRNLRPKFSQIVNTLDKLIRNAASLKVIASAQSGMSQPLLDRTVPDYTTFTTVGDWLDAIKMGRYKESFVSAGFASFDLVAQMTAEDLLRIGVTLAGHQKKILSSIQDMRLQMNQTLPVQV

[6] = target: T2, Serine/threonine-protein kinase Chk1 (Homo sapiens) (UniProt O14757); test: Inhibition of human CHK1
T2 sequence (whole entry): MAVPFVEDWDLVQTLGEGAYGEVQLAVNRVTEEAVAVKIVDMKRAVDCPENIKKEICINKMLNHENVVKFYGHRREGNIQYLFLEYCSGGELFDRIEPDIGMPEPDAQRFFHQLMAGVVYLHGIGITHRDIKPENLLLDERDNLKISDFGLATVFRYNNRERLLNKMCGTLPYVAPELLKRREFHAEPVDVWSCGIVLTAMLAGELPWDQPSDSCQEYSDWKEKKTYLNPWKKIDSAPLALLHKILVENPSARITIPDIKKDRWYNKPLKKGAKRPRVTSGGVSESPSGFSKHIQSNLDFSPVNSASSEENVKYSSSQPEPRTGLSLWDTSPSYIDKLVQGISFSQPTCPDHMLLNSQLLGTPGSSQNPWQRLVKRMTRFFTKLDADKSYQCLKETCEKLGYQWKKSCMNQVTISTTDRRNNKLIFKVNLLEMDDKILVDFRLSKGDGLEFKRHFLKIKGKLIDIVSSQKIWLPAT

[7] = target: Aurora kinase B (Homo sapiens) (UniProt Q96GD4); test: Inhibition of human aurora-B; details: concentration not given here
Aurora kinase B (Homo sapiens), sequence (Q96GD4 whole entry, the tested form may be a part): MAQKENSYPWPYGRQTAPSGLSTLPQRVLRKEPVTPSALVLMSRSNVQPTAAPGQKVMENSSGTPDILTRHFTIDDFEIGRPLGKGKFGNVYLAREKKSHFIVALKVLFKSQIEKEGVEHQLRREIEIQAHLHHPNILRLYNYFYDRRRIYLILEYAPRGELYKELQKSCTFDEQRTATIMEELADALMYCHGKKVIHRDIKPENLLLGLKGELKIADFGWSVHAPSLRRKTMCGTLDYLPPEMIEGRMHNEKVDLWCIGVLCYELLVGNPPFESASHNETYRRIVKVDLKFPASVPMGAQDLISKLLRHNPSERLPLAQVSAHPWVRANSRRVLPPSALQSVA

HCT-116 [8] = test: Induction of apoptosis in human HCT116 cells assessed as appearance of cleaved caspase-7 at fragmented chromosomes at 20 uM after 24 hrs by Hoechst 33258 staining-based fluorescence microscopic analysis; type: functional, cell-based
HCT-116 [9] = test: Induction of apoptosis in human HCT116 cells assessed as caspase-7 cleavage at 20 uM by Western blot analysis; type: functional, cell-based; details: TDE = time-dependent effect
HCT-116 [10] = test: Cell cycle arrest in human HCT116 cells assessed as accumulation at sub-G1 phase at 20 uM by propidium iodide staining-based flow cytometric analysis; type: functional; details: TDE = time-dependent effect
HCT-116 [11] = test: Cell cycle arrest in human HCT116 cells assessed as accumulation at G2/M phase at 20 uM after 24 hrs by propidium iodide staining-based flow cytometric analysis (reference value: 2.9%); type: functional
HCT-116 [12] = test: Cell cycle arrest in human HCT116 cells assessed as accumulation at S phase at 20 uM after 24 hrs by propidium iodide staining-based flow cytometric analysis (reference value: 2.9%); type: functional
HCT-116 [13] = test: Cell cycle arrest in human HCT116 cells assessed as accumulation at S phase at 20 uM after 12 hrs by propidium iodide staining-based flow cytometric analysis (reference value: 26.9%); type: functional
HCT-116 [14] = test: Cell cycle arrest in human HCT116 cells assessed as accumulation at G1 phase at 20 uM after 12 hrs by propidium iodide staining-based flow cytometric analysis (reference value: 48.2%); type: functional
HCT-116 [15] = test: Cell cycle arrest in human HCT116 cells assessed as accumulation at sub-G1 phase at 20 uM after 12 hrs by propidium iodide staining-based flow cytometric analysis (reference value: 2.9%); type: functional
HCT-116 [16] = test: Cytotoxicity against human HCT116 cells assessed as decrease in cell viability at > 20 uM after 24 hrs by CCK8 assay; type: functional, cell-based
[17] = target: Epidermal growth factor receptor (Homo sapiens) (UniProt P00533); test: Inhibition of human EGFR
Epidermal growth factor receptor (Homo sapiens), sequence (P00533 whole entry): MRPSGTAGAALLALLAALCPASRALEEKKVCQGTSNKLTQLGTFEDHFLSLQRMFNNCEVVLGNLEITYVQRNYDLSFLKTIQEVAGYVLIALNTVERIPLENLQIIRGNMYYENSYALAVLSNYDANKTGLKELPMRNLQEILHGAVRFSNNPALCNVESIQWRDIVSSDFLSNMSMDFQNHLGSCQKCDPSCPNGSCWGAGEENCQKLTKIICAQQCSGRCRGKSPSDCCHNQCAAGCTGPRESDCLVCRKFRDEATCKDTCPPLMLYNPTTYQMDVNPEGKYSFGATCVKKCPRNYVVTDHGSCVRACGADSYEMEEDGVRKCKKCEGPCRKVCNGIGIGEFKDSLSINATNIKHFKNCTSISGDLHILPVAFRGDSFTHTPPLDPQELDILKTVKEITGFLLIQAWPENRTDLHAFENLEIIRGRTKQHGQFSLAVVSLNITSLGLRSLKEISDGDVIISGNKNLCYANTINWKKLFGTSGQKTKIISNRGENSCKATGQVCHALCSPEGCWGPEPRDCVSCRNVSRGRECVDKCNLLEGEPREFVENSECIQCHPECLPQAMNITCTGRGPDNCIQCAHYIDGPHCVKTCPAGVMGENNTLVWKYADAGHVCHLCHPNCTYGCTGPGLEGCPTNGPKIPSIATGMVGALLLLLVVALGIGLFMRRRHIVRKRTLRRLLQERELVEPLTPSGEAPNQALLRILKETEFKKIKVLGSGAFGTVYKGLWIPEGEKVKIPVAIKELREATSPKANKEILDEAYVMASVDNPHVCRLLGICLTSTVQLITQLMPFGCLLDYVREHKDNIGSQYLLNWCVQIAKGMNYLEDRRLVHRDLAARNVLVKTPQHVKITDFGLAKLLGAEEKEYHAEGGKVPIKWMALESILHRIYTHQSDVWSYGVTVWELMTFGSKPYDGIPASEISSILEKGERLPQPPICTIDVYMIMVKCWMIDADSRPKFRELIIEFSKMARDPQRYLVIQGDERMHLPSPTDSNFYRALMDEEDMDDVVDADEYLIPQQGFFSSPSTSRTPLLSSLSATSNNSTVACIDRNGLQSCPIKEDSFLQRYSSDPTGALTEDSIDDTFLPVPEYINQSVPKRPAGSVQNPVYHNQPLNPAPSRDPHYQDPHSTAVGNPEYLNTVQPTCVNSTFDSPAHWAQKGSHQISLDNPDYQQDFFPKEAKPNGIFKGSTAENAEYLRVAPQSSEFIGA

## COc1ccc2c(c1)C=C(C(=O)/C=C/c1c(OC)cc(OC)cc1OC)CO2
HCT-116 [1]
  Activity: 99%
HCT-116 [2]
  Activity: 0%
HCT-116 [3]
  Activity: 14%
Homo sapiens
  inhibition: inactive
[4]
  inhibition: inactive
[5]
  inhibition: inactive
[6]
  inhibition: inactive
[7]
  inhibition: 65%
HCT-116 [8]
  Activity: Active
HCT-116 [9]
  Activity: tde
HCT-116 [10]
  Activity: tde
HCT-116 [11]
  Activity: 21.5%
HCT-116 [12]
  Activity: 13.6%
HCT-116 [13]
  Activity: 19.6%
HCT-116 [14]
  Activity: 18.9%
HCT-116 [15]
  Activity: 15.1%
HCT-116 [16]
  Activity: Active
[17]
  inhibition: inactive
